The results in this text go back to PubChem BioAssay (NCI).

Holding throughout (assay): inhibition of tumour cell growth, NCI panel, 48 h
Experiment [1] deals with 786-0 renal.
In experiment [2] the test system is HCC-2998 colon.
The subject of experiment [3] is K-562 leukemia.
Experiment [4] concerns MOLT-4 leukemia.
Experiment [5] has as its system OVCAR-4 ovarian.
Experiment [6] concerns OVCAR-5 ovarian.
Experiment [7] relates to RPMI-8226 leukemia.
The test system of experiment [8] is SF-295 CNS.
Experiment [9] deals with SK-MEL-28 melanoma.
Experiment [10] has as its system U251 CNS.

Values joined by “and” are separate entries in the source; they are usually repeats but may differ in a detail not shown here. Equal entries are not always repeated.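 48-hour exposure; five concentrations; linearly interpolated endpoints. At the GI50, growth is halved. Definition used: TGI = concentration required for complete inhibition of growth.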 Where only a bound is given, the exact number is not on record here.

In the case of `Cn1cnc([N+](=O)[O-])c1Sc1ncnc2nc[nH]c12`, the GI50 in experiment [1] was 3.25 µM and 3.77 µM; in experiment [2], 5.64 µM; in experiment [3] it was 2.49 µM and 1.3 µM; in experiment [4], 8.77 µM and 6.68 µM; in [5], 3.38 µM and 10.2 µM; in experiment [6], 8.42 µM and 53.2 µM. For the same molecule, the GI50 is 3.18 µM and 1.55 µM in experiment [7]; 1.61 µM and 9.82 µM in [8]; 37.8 µM and 40.2 µM in [9]; 13.9 µM and 27.7 µM in [10]. In addition, the TGI in experiment [1], in experiment [2], in experiment [3], in experiment [4], in experiment [5] and in experiment [6] was over 100 µM throughout. The TGI in experiment [7], in experiment [8], in experiment [9] and in experiment [10] was over 100 µM throughout.

Turning to `Cc1c2ncccc2c(C)c2c1[nH]c1ccccc12`, the TGI in experiment [1] worked out at 23.2 µM; in experiment [2], 25.7 µM; in experiment [3], 41.7 µM; in [4], 6.5 µM; in [5], 43.4 µM; in [6], 27.1 µM. For the same molecule, the TGI in experiment [7] amounted to 26.2 µM; in experiment [8] it was 21.9 µM; in experiment [9], 28.9 µM; in experiment [10] it was 24.7 µM.
